# Test results reported in patent US7662832B2, “Pyrrolo[2,3-c]pyridine derivatives and processes for the preparation thereof” (priority 2004, dated 2010).
# pIC50: −log10 of the molar value. Counter-ions that a name gives are not always drawn.
# Molecular target: Proton Pump (H^+/K^+-ATPase) (Sus scrofa, UniProt P19156)
# Assay: Inhibitory effects on proton pump (H^+/K^+-ATPase) activity
# Assay type: biochemical
# Conditions: hog gastric vesicles; K^+ stimulated H^+/K^+-ATPase activity; 30 minutes at 37° C.
# Sequence of Proton Pump (H^+/K^+-ATPase) (P19156 2-1034 limits assumed): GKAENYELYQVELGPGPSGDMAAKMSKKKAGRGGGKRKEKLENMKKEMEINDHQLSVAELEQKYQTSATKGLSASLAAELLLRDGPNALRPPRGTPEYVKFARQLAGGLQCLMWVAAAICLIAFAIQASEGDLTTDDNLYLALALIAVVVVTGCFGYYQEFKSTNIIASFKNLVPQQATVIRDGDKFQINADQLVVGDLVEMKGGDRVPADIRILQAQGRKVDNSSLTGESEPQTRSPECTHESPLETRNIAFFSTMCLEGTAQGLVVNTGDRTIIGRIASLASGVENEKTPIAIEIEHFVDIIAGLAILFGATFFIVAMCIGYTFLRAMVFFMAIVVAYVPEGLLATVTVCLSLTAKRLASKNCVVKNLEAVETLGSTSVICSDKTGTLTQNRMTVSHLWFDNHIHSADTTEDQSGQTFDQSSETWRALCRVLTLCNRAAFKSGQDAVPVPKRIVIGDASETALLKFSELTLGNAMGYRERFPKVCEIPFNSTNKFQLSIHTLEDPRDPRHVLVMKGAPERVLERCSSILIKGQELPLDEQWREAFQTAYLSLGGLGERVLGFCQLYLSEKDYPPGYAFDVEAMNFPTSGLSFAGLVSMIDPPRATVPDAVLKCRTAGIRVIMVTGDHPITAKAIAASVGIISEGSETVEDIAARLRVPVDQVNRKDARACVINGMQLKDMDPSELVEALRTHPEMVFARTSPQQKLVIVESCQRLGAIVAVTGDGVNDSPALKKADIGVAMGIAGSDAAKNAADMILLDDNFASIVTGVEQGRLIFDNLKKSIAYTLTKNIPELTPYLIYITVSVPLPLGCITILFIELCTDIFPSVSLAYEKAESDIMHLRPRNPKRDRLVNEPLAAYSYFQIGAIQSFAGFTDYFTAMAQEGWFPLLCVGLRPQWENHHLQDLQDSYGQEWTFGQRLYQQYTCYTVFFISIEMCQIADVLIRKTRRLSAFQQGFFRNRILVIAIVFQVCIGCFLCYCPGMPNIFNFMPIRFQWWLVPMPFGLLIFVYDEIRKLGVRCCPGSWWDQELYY
# Sequence of Proton Pump (H^+/K^+-ATPase) (P18434 whole entry partner): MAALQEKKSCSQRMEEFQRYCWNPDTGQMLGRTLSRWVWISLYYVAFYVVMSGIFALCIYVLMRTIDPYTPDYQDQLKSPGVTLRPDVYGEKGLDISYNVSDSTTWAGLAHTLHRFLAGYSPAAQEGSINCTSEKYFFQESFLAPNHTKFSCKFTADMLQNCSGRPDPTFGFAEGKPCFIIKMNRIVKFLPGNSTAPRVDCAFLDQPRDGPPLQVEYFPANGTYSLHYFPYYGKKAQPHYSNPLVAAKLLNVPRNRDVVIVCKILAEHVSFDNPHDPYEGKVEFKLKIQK
row,SMILES,pIC50
1,"Cc1c(C)n(Cc2ccccc2)c2c(N3CCc4ccccc4C3)nc(C(=O)N3CCSCC3)cc12 [Example 789, [1-benzyl-7-(3,4-dihydro-1H-isoquinolin-2-yl)-2,3-dimethyl-1H-pyrrolo[2,3-c]pyridin-5-yl]-(thiomorpholin-1-yl)-methanone hydrochloride]",7.19
2,"Cc1c(C)n(Cc2cccc(Cl)c2)c2c(N3CCc4ccccc4C3)nc(C(=O)N3CCSCC3)cc12 [Example 790, [1-(3-chlorobenzyl)-7-(3,4-dihydro-1H-isoquinolin-2-yl)-2,3-dimethyl-1H-pyrrolo[2,3-c]pyridin-5-yl]-(thiomorpholin-1-yl)-methanone hydrochloride]",6.89
3,"Cc1[nH]c2c(N3CCc4ccccc4C3)nc(C(=O)N3CCCCC3)cc2c1C [Example 791, [7-(3,4-dihydro-1H-isoquinolin-2-yl)-2,3-dimethyl-1H-pyrrolo[2,3-c]pyridin-5-yl]-(piperidin-1-yl)-methanone hydrochloride]",6.91
4,"COCCn1c(C)c(C)c2cc(C(=O)N3CCCCC3)nc(N3CCc4ccccc4C3)c21 [Example 792, [7-(3,4-dihydro-1H-isoquinolin-2-yl)-1-(2-methoxyethyl)-2,3-dimethyl-1H-pyrrolo[2,3-c]pyridin-5-yl]-(piperidin-1-yl)-methanone hydrochloride]",7.23
5,"Cc1c(C)n(CC2CC2)c2c(N3CCc4ccccc4C3)nc(C(=O)N3CCCCC3)cc12 [Example 793, [1-cyclopropylmethyl-7-(3,4-dihydro-1H-isoquinolin-2-yl)-2,3-dimethyl-1H-pyrrolo[2,3-c]pyridin-5-yl]-(piperidin-1-yl)-methanone hydrochloride]",6.93
6,"Cc1c(C)n(Cc2cccc(F)c2)c2c(N3CCc4ccccc4C3)nc(C(=O)N3CCCCC3)cc12 [Example 796, [7-(3,4-dihydro-1H-isoquinolin-2-yl)-1-(3-fluorobenzyl)-2,3-dimethyl-1H-pyrrolo[2,3-c]pyridin-5-yl]-(piperidin-1-yl)-methanone hydrochloride]",6.52
7,"Cc1c(C)n(Cc2ccc(F)cc2)c2c(N3CCc4ccccc4C3)nc(C(=O)N3CCCCC3)cc12 [Example 797, [7-(3,4-dihydro-1H-isoquinolin-2-yl)-1-(4-fluorobenzyl)-2,3-dimethyl-1H-pyrrolo[2,3-c]pyridin-5-yl]-(piperidin-1-yl)-methanone hydrochloride]",6.54
8,"Cc1cccc(Cn2c(C)c(C)c3cc(C(=O)N4CCCCC4)nc(N4CCc5ccccc5C4)c32)c1 [Example 798, [7-(3,4-dihydro-1H-isoquinolin-2-yl)-2,3-dimethyl-1-(3-methylbenzyl)-1H-pyrrolo[2,3-c]pyridin-5-yl]-(piperidin-1-yl)-methanone hydrochloride]",6.66
9,"Cc1c(C)n(Cc2cccc(Cl)c2)c2c(N3CCc4ccccc4C3)nc(C(=O)N3CCCCC3)cc12 [Example 799, [1-(3-chlorobenzyl)-7-(3,4-dihydro-1H-isoquinolin-2-yl)-2,3-dimethyl-1H-pyrrolo[2,3-c]pyridin-5-yl]-(piperidin-1-yl)-methanone hydrochloride]",6.79
10,"COCn1c(C)c(C)c2cc(C(=O)N3CCCCC3)nc(N3CCc4ccccc4C3)c21 [Example 800, [7-(3,4-dihydro-1H-isoquinolin-2-yl)-1-methoxymethyl-2,3-dimethyl-1H-pyrrolo[2,3-c]pyridin-5-yl]-(piperidin-1-yl)-methanone hydrochloride]",7.04
11,"CCCn1c(C)c(C)c2cc(C(=O)N3CCCCC3)nc(N3CCc4ccccc4C3)c21 [Example 801, [7-(3,4-dihydro-1H-isoquinolin-2-yl)-2,3-dimethyl-1-propyl-1H-pyrrolo[2,3-c]pyridin-5-yl]-(piperidin-1-yl)-methanone hydrochloride]",6.80
12,"C#CCn1c(C)c(C)c2cc(C(=O)N3CCCCC3)nc(N3CCc4ccccc4C3)c21 [Example 802, [7-(3,4-dihydro-1H-isoquinolin-2-yl)-2,3-dimethyl-1-(prop-2-ynyl)-1H-pyrrolo[2,3-c]pyridin-5-yl]-(piperidin-1-yl)-methanone hydrochloride]",7.10
13,"CCn1c(C)c(C)c2cc(C(=O)N3CCCC3)nc(N3CCc4ccccc4C3)c21 [Example 803, [7-(3,4-dihydro-1H-isoquinolin-2-yl)-1-ethyl-2,3-dimethyl-1H-pyrrolo[2,3-c]pyridin-5-yl]-(pyrrolidin-1-yl)-methanone hydrochloride]",7.46
14,"CCn1c(C)c(C)c2cc(C(=O)N3CCC(CCO)CC3)nc(N3CCc4ccccc4C3)c21 [Example 804, [7-(3,4-dihydro-1H-isoquinolin-2-yl)-1-ethyl-2,3-dimethyl-1H-pyrrolo[2,3-c]pyridin-5-yl]-[4-(2-hydroxyethyl)-piperidin-1-yl]-methanone hydrochloride]",7.44
15,"CCn1c(C)c(C)c2cc(C(=O)N3CCC(CO)CC3)nc(N3CCc4ccccc4C3)c21 [Example 805, [7-(3,4-dihydro-1H-isoquinolin-2-yl)-1-ethyl-2,3-dimethyl-1H-pyrrolo[2,3-c]pyridin-5-yl]-(4-hydroxymethylpiperidin-1-yl)-methanone hydrochloride]",7.51
16,"CCn1c(C)c(C)c2cc(C(=O)N3CCC(O)CC3)nc(N3CCc4ccccc4C3)c21 [Example 806, [7-(3,4-dihydro-1H-isoquinolin-2-yl)-1-ethyl-2,3-dimethyl-1H-pyrrolo[2,3-c]pyridin-5-yl]-(4-hydroxypiperidin-1-yl)-methanone hydrochloride]",7.89
17,"CCn1c(C)c(C)c2cc(C(=O)N3CCCC(O)C3)nc(N3CCc4ccccc4C3)c21 (centres unmarked) [Example 807, [7-(3,4-dihydro-1H-isoquinolin-2-yl)-1-ethyl-2,3-dimethyl-1H-pyrrolo[2,3-c]pyridin-5-yl]-(3-hydroxypiperidin-1-yl)-methanone hydrochloride]",7.64
18,"CCn1c(C)c(C)c2cc(C(=O)N3CCSCC3)nc(N3CCc4ccccc4C3)c21 [Example 808, [7-(3,4-dihydro-1H-isoquinolin-2-yl)-1-ethyl-2,3-dimethyl-1H-pyrrolo[2,3-c]pyridin-5-yl]-(thiomorpholin-4-yl)-methanone hydrochloride]",7.26
19,"CCn1c(C)c(C)c2cc(C(=O)N3CC=CCC3)nc(N3CCc4ccccc4C3)c21 [Example 809, [7-(3,4-dihydro-1H-isoquinolin-2-yl)-1-ethyl-2,3-dimethyl-1H-pyrrolo[2,3-c]pyridin-5-yl]-(3,6-dihydro-2H-pyridin-1-yl)-methanone hydrochloride]",7.23
20,"CCn1c(C)c(C)c2cc(C(=O)N3CCN(c4ccccc4)CC3)nc(N3CCc4ccccc4C3)c21 [Example 810, [7-(3,4-dihydro-1H-isoquinolin-2-yl)-1-ethyl-2,3-dimethyl-1H-pyrrolo[2,3-c]pyridin-5-yl]-(4-phenylpiperazin-1-yl)-methanone hydrochloride]",6.36
21,"C=CCn1c(C)c(C)c2cc(C(=O)N3CCNCC3)nc(N3CCc4ccccc4C3)c21 [Example 811, [1-allyl-7-(3,4-dihydro-1H-isoquinolin-2-yl)-2,3-dimethyl-1H-pyrrolo[2,3-c]pyridin-5-yl]-(piperazin-1-yl)-methanone hydrochloride]",8.52
22,"Cc1c(C)n(Cc2ccccc2)c2c(N3CCc4ccccc4C3)nc(C(=O)N3CCNCC3)cc12 [Example 812, [1-benzyl-7-(3,4-dihydro-1H-isoquinolin-2-yl)-2,3-dimethyl-1H-pyrrolo[2,3-c]pyridin-5-yl]-(piperazin-1-yl)-methanone hydrochloride]",7.68
23,"CCCn1c(C)c(C)c2cc(C(=O)N3CCNCC3)nc(N3CCc4ccccc4C3)c21 [Example 813, [7-(3,4-dihydro-1H-isoquinolin-2-yl)-2,3-dimethyl-1-propyl-1H-pyrrolo[2,3-c]pyridin-5-yl]-(piperazin-1-yl)-methanone hydrochloride]",7.96
24,"Cc1cccc(Cn2c(C)c(C)c3cc(C(=O)N4CCNCC4)nc(N4CCc5ccccc5C4)c32)c1 [Example 814, [7-(3,4-dihydro-1H-isoquinolin-2-yl)-2,3-dimethyl-1-(3-methylbenzyl)-1H-pyrrolo[2,3-c]pyridin-5-yl]-(piperazin-1-yl)-methanone hydrochloride]",7.51
25,"Cc1c(C)n(CC(C)C)c2c(N3CCc4ccccc4C3)nc(C(=O)N3CCNCC3)cc12 [Example 815, [7-(3,4-dihydro-1H-isoquinolin-2-yl)-1-isobutyl-2,3-dimethyl-1H-pyrrolo[2,3-c]pyridin-5-yl]-(piperazin-1-yl)-methanone hydrochloride]",7.54
26,"Cc1c(C)n(CC2CC2)c2c(N3CCc4ccccc4C3)nc(C(=O)N3CCNCC3)cc12 [Example 816, [1-cyclopropylmethyl-7-(3,4-dihydro-1H-isoquinolin-2-yl)-2,3-dimethyl-1H-pyrrolo[2,3-c]pyridin-5-yl]-(piperazin-1-yl)-methanone hydrochloride]",8.05
27,"Cc1c(C)n(CC2CC2)c2c(N3CCc4ccccc4C3)nc(C(=O)N3CCN(C)CC3)cc12 [Example 817, [1-cyclopropylmethyl-7-(3,4-dihydro-1H-isoquinolin-2-yl)-2,3-dimethyl-1H-pyrrolo[2,3-c]pyridin-5-yl]-(4-methylpiperazin-1-yl)-methanone hydrochloride]",7.62
28,"CCN1CCN(C(=O)c2cc3c(C)c(C)n(CC4CC4)c3c(N3CCc4ccccc4C3)n2)CC1 [Example 818, [1-cyclopropylmethyl-7-(3,4-dihydro-1H-isoquinolin-2-yl)-2,3-dimethyl-1H-pyrrolo[2,3-c]pyridin-5-yl]-(4-ethylpiperazin-1-yl)-methanone hydrochloride]",7.47
29,"Cc1c(C)n(Cc2ccccc2)c2c(N3CCc4ccccc4C3)nc(C(=O)N3CCN(C)CC3)cc12 [Example 819, [1-benzyl-7-(3,4-dihydro-1H-isoquinolin-2-yl)-2,3-dimethyl-1H-pyrrolo[2,3-c]pyridin-5-yl]-(4-methylpiperazin-1-yl)-methanone hydrochloride]",7.92
